What all share (format): cell-based, human
For experiment [1], the system named is VTC-001 GSCs. Nature of the experiment: Limiting dilution analysis (ELDA), VTC-001 GSCs. The settings on record: VTC-001, 100 μM every other day, 2 weeks; compared to JM2-scrambled or control. The procedure: (§1) GSCs and PDX GBM22 cells were plated as single cell suspension in low-attachment 96-well plates (GSCs: 100–500 cells per well; GBM22 cells: 500–2000 cells per well), using methods similar to those reported previously. Cells were then treated with peptides every other day. 2 weeks later, gliospheres were observed using phase contrast microscopy on a Revolve microscope (Echo Laboratories). The number of gliospheres was then determined, while the gliosphere size was assessed by diameter measurement. To evaluate stem cell frequency in GSCs, gliosphere formation assay was performed with limiting cell dilutions with cells plated at varying densities in low-attachment 96-well plates. Cells were treated with peptides every other day, and after 2 weeks, gliosphere-positive wells were observed and scored using phase contrast microscopy on a Revolve microscope. The stem cell frequency was analyzed using the online data analysis program ELDA (Extreme Limiting Dilution Analysis).
(§2) All quantification was performed on experiments repeated at least three times. Statistical analysis was conducted with GraphPad Prism (GraphPad Software). Data were analyzed for significance using Student’s t test, one-way ANOVA with Tukey’s multiple comparisons test, and presented as mean ± SD. […] Statistical significance between experimental groups was determined using chi-square (χ²) tests within the ELDA framework. […]

The subject of experiment [2] is Cx43/α-tubulin interaction. Nature of the experiment: Co-immunoprecipitation with α-tubulin antibody: Cx43 interaction with α-tubulin. The settings on record: VTC-037 GSCs, 50 μM, 24 h, cross-linked (DTBP). The procedure:
Prior to lysis, cross-linking was completed by incubating cells in DTBP (dimethyl 3,3’-dithiobispropionimidate; 2 mM in PBS) for 30 min at 37 °C followed by a glycine quench (100 mM glycine in PBS) for 15 min at room temperature. Cross-linked samples were lysed in RIPA buffer supplemented with Halt^TM Protease and Phosphatase Inhibitor Cocktail as described above, but without sonication. Co-immunoprecipitation (co-IP) assays were also performed without cross-linking; non-cross-linked samples were lysed using a co-IP lysis buffer (0.5% Triton X-100, 50 mM Tris HCl, 150 mM NaCl, 1 mM EDTA, 1 mM EGTA, 1 mM DTT, 0.1 mM Na3VO4, and 1 mM NaF) supplemented with Halt^TM Protease and Phosphatase Inhibitor Cocktail, without sonication. Protein concentration was quantified using the DC protein assay and a standard curve obtained with increasing concentrations of BSA, and 500 μg of total protein was used per reaction for co-IP. Inputs were removed prior to co-IP and denatured in Bolt LDS sample buffer as described above. Remaining protein lysates were incubated with Protein G Sepharose^TM 4 Fast Flow beads (GE Healthcare) for pre-clearance for 30 min at 4 °C. Samples were incubated with 2 μg of mouse anti-α-tubulin (MilliporeSigma, T6199) for cross-linked samples or mouse anti-Cx43 antibody (EMD Millipore; MAB3067) for non-cross-linked samples for 90 min at 4 °C. […]

The subject of experiment [3] is VTC-034 GSCs. Description: Limiting dilution analysis (ELDA), VTC-034 GSCs. Particulars: VTC-034, 100 μM every other day, 2 weeks; compared to JM2-scrambled or control. The procedure: as §1, §2

Data on 1 sequence can be found in article PMC12084297, “Cytoplasmic connexin43-microtubule interactions promote glioblastoma stem-like cell maintenance and tumorigenicity” (Cell Death & Disease, 2025).

With VFFKGVKDRVKGRSD [JM2], the “GSC frequency / self-renewal (limiting dilution)” value in experiment [1] is “significant decrease in VTC-001, VTC-034, and VTC-037 GSC frequency”; in experiment [3], “significant decrease in VTC-001, VTC-034, and VTC-037 GSC frequency”. The “Cx43 interaction with α-tubulin (co-IP)” value in experiment [2] is “decrease in Cx43 interaction with α-tubulin”.
